The values that follow come from US9458187B2, “Methods for treatment of inflammatory conditions using S-[4-(3-fleuro-3-methylbutyryloxy)but-2-ynyl]6α, 9α-difluoro-17α-(furan-2-yl) carbonyloxy-11β-hydroxy-16α-methyl-3-oxoandrosta-1,4-diene-17β-carbothioate” (Sun Pharma Advanced Research Company Limited, priority 2013, dated 2016).

In one data set the target is T1, Aldosterone receptor (Rattus norvegicus, UniProt P22199).
T1 construct: aldosterone (Wistar rat kidney); from tissue; host or cells: Wistar rat kidney
T1 sequence (P22199 1-981): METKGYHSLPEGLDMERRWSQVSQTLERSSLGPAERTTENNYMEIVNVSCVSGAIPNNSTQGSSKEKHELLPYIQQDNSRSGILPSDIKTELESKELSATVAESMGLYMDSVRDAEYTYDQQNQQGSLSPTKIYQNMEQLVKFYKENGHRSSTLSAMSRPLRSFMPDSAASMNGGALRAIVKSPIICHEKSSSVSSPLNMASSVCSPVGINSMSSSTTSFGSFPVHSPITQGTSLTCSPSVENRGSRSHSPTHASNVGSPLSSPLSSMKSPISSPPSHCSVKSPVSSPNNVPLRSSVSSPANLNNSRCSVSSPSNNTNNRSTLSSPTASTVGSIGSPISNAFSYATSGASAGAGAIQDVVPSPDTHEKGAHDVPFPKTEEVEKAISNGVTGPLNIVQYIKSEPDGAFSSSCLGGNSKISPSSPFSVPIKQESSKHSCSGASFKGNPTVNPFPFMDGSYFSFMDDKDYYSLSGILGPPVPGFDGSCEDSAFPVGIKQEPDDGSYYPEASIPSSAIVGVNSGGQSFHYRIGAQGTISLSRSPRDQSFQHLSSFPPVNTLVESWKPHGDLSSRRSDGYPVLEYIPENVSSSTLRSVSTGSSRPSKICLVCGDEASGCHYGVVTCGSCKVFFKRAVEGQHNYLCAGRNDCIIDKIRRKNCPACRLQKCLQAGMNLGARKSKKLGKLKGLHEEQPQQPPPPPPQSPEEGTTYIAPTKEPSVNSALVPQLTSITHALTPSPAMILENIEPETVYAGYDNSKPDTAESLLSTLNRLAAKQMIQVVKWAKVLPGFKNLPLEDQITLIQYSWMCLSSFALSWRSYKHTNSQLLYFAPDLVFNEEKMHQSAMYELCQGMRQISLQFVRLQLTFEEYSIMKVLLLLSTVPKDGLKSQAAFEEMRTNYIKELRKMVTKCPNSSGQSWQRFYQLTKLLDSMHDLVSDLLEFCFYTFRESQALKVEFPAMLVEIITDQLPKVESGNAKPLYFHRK
Put plainly: Steroidal receptor binding screen, aldosterone. The source says: (§1) For determination of binding to other related steroidal receptors by compound of the present invention cloned receptors from cells indicated in the parentheses were used: estrogen Erα/Erβ and progesterone (human recombinant insect Sf9), testosterone (human LnCAP) and aldosterone (Wistar rat kidney).

Data set [1] relates to intraocular pressure (IOP). Put plainly: Effect on intraocular pressure (IOP). Type of data set: in vivo, rabbits. Conditions: 40 μl ophthalmic, 10 instillations daily for 10 days; FIG. 4. The method, then:
IOP measurement was performed 1 hr after instillation of the last dose (results are represented in FIG. 4—Effect of ophthalmic steroids on-IOP in rabbits).

The test system of data set [2] is liver glycogen deposition. Put plainly: Liver glycogen deposition. To be noted: 3 mg/kg intratracheal, 2 doses 24 hrs apart, adrenalectomized rats. It counts as in vivo, Male Sprague Dawley rats. On the procedure:
Male Sprague Dawley rats, weighing 190-220 g were bilaterally adrenalectomized and maintained on 0.9% saline solution throughout the experiment. On day 5th and 6th of adrenalectomy, animals were made into different groups, test compounds prepared in cold saline (sonicated for 30 min) were instilled intratracheally 2 doses @3 mg/kg, 24 hrs apart. At 15 hrs after the last treatment, animals were sacrificed and livers were excised and weighed. The glycogen content of the livers was determined by anthrone method. Briefly, a weighed quantity of liver tissue was homogenized with 5% trichloroacetic acid, supernatant mixed with ethanol and kept overnight for precipitation. The glycogen thus extracted was estimated as glucose generated after acid hydrolysis by addition of anthrone reagent at 620 nm. Glycogen content was expressed as mg/100 g liver.

For the next data set, the system named is croton oil ear edema. Put plainly: Croton oil ear edema. Type of data set: in vivo, Mice (male, CD-1). Conditions: 1 μg, applied to ear 2 hrs before croton oil. On the procedure:
Mice (male, CD-1) were made into different groups. A method similar to one reported in the literature was used. Test compounds were dissolved in pyridine-water-acetone (4:2:14) solution 10 μl of this solution of compound or vehicle solution was applied to the left ear of the mice. The right ear of each mouse was applied simultaneously with 10 μl of pyridine: water: acetone (4:2:14) solution. After 2 hrs of compound or vehicle application, 10 μl of croton oil solution was applied to the left ear of all animals. After 6 hr of croton oil treatment the animals were sacrificed; ears were excised and weighed separately.

The next data set concerns the target T2, Progesterone receptor (Homo sapiens, UniProt P06401).
T2 construct: host or cells: insect Sf9
T2 sequence (P06401 1-933): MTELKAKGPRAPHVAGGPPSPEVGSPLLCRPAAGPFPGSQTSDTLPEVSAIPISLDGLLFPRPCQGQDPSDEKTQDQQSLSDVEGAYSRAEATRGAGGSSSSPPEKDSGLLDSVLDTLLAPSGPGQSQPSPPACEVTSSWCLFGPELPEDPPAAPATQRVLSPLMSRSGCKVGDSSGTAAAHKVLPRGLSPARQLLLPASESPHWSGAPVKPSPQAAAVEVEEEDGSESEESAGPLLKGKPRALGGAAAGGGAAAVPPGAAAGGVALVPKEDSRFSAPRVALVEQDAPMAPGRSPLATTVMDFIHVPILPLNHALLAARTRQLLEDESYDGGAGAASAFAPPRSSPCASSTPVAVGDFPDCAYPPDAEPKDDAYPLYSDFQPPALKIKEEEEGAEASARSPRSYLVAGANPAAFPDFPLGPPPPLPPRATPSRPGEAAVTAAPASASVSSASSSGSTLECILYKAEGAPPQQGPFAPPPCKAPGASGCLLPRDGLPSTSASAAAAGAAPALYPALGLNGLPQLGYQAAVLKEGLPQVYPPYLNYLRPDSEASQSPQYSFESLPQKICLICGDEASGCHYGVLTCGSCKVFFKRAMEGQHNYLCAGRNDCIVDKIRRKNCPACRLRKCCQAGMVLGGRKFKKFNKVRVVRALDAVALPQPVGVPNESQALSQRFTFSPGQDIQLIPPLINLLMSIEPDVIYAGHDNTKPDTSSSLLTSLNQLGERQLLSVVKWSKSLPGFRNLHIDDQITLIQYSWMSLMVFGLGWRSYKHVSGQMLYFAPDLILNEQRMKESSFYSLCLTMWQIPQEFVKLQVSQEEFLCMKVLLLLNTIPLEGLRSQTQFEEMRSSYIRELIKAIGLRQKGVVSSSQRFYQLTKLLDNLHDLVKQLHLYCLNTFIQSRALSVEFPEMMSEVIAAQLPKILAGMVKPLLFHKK
The experiment in a line: Steroidal receptor binding screen, progesterone (human).
Description: as §1

A word on the IC50: it is the concentration needed to halve the response being measured. Lower therefore signals inhibition by little substance. One may read the Ki as the equilibrium dissociation constant of an inhibitor or competing ligand from its target. The low end stands for tighter binding, the high end for weaker binding. Turning to `C[C@@H]1CC2C3C[C@H](F)C4=CC(=O)C=C[C@]4(C)[C@@]3(F)[C@@H](O)C[C@]2(C)[C@@]1(OC(=O)c1ccco1)C(=O)SCC#CCOC(=O)CC(C)(C)F` (stereo partly drawn) [Formula I, S-[4-(3-Fluoro-3-methylbutyryloxy)but-2-ynyl]6α,9α-difluoro-17α-(furan-2-yl)carbonyloxy-11β-hydroxy-16α-methyl-3-oxoandrosta-1,4-diene-17β-carbothioate], on Aldosterone receptor, the IC50 came out at 328 nM and the Ki amounted to 256 nM. Further, the “intraocular pressure (IOP)” value in data set [1] is “insignificant (comparable to placebo)”. The Glycogen content in data set [2] was found to be 10.68 mg/100 g liver. Moreover, in the data set with croton oil ear edema, the “Inhibition of ear edema (%)” value came out at 75.5%. For the same molecule, on Progesterone receptor, the IC50 amounted to 8.52 nM and the Ki was found to be 3.29 nM.
